# Laboratory results from patent publication US10874103B2, “Antibacterial composition comprising an acetal or a long-chain alkyl hexitane ether” (TEREOS STARCH & SWEETENERS BELGIUM, priority 2014, dated 2020).
# Where two headings read alike, the source gives them in different places.
# Columns and labels:
# [1] = system: Enterococci: E. faecalis strains; test: MIC microdilution on wider panel (Example 8), E. faecalis strains; type: cell-based
# Procedure: The cultures studied, freshly isolated (after incubation on a blood agar at 37° C. for 18 h), are taken up in sterile water (10 mL) until a 0.5 McFarland (Mc) suspension i.e. at 1 to 2×10^8 CFU (bacteria)/cm^3 is obtained. The bacterial suspension was then diluted to obtain a final concentration of 1×10^6 CFU/cm^3. Each well contains an identical quantity of Mueller-Hinton medium (a rich medium for bacterial culture) and bacteria with final 0.5×10^6 CFU/cm^3. The test compounds of interest are solubilized in ethanol or DMSO at 25 mg/mL before being diluted to different concentrations two by two. On the multiwell plate, a first series has been planned comprising the culture medium without the test compound of interest. It corresponds to the growth control (control well). These controls serve as reference for comparing bacterial growth with that of the subsequent wells comprising different concentrations of the test compound of interest. The second series of wells comprises the mother solution for the test compound of interest for a concentration in the wells of 256 mg (7 mM). Each series of wells was diluted two by two until the last series for a final concentration of 0.25 mg/L (0.0007 mM). Each concentration is duplicated in the same plate. The plate is incubated for 18 h at 37° C. […] If there is antibacterial activity, the bacterial growth is inhibited, which means that no turbidity or bacterial residue is present. The minimum inhibitory concentrations (MIC) are tested on Gram-positive bacterial strains according to the recommendations of the “Clinical Laboratory Standards Institute” (Clinical-Laboratory-Standards-Institute, 6th ed. Approved standard M100-S17. CLSI, Wayne, Pa., 2007). The clinical strains have been isolated in the Hospice de Lyon. […]
# [2] = system: S. aureus (ATCC® 292213™); test: MBC, bacterial count from clear wells reseeded on agar (Example 5); type: cell-based; details: Table 2
# Procedure: (§1) To determine whether the agents tested are bactericidal, the minimum bactericidal concentration (MBC) is determined. The MBC corresponds to the concentration leaving a number of bacterial survivors of <4 log. For this, a bacterial count is run from clear wells or without bacterial residue (C≤MIC). To do this, a dilution to 1/100 was conducted with the two wells with the same concentration before seeding on a blood agar using the Spiral technique. After 24 h of incubation at 37° C., the visual count allowed determination of the minimum concentration from which there is no bacterial growth.
# (§2) To determine the bactericidal effect of compounds presenting bacteriostatic properties, the wells no longer presenting turbidity were reseeded on agar.
# [3] = system: E. faecalis (ATCC® 29212™); test: as above; type: cell-based; details: Table 2; reseeded on agar
# Procedure: as §1, §2
# [4] = system: L. monocytogenes (CIP 103575); test: as above; type: cell-based; details: Table 2; reseeded on agar
# Procedure: as §1, §2
# [5] = system: Staphylococcus Aureus strains; test: MIC microdilution on wider panel (Example 8), Staphylococcus strains; type: cell-based, S. aureus
# Procedure: (§3) The cultures studied, freshly isolated (after incubation on a blood agar at 37° C. for 18 h), are taken up in sterile water (10 mL) until a 0.5 McFarland (Mc) suspension i.e. at 1 to 2×10^8 CFU (bacteria)/cm^3 is obtained. The bacterial suspension was then diluted to obtain a final concentration of 1×10^6 CFU/cm^3.
# Each well contains an identical quantity of Mueller-Hinton medium (a rich medium for bacterial culture) and bacteria with final 0.5×10^6 CFU/cm^3.
# The test compounds of interest are solubilized in ethanol or DMSO at 25 mg/mL before being diluted to different concentrations two by two. On the multiwell plate, a first series has been planned comprising the culture medium without the test compound of interest. It corresponds to the growth control (control well). These controls serve as reference for comparing bacterial growth with that of the subsequent wells comprising different concentrations of the test compound of interest. The second series of wells comprises the mother solution for the test compound of interest for a concentration in the wells of 256 mg (7 mM). Each series of wells was diluted two by two until the last series for a final concentration of 0.25 mg/L (0.0007 mM). Each concentration is duplicated in the same plate. The plate is incubated for 18 h at 37° C. […] If there is antibacterial activity, the bacterial growth is inhibited, which means that no turbidity or bacterial residue is present.
# The minimum inhibitory concentrations (MIC) are tested on Gram-positive bacterial strains according to the recommendations of the “Clinical Laboratory Standards Institute” (Clinical-Laboratory-Standards-Institute, 6th ed. Approved standard M100-S17. CLSI, Wayne, Pa., 2007). The clinical strains have been isolated in the Hospice de Lyon.
# Staphylococci S. aureus: ATCC® 29213™, ATCC 25923,
# Staphylococci strains Daptomycin-resistant S. aureus (ST 2015-0188), (ST 2014 1288).
# as §3, with “10^8” for “1 to 2×10^8”, “10^6” for “1×10^6”
# [6] = Critical micelle concentration (surfactant properties, Example 6); type: physicochemical
# Description: The physical, chemical and antimicrobial properties for the best products synthesized have been tested. These analyses show the different surfactant profiles, and the minimum inhibitory concentrations (MIC) for each compound on Gram-positive bacteria. The best surfactant and antimicrobial results are compared in Table 3.
substance,measurement,setting,value
"Dodecyl-1,4-d-sorbitan [Example 2e]",Minimum inhibitory concentration (MIC) ATCC 29212,[1]; E. faecalis ATCC 29212,8 µg/mL
same,Minimum inhibitory concentration (MIC) 1801,"[1]; clinical E. faecalis from urines, strain 015205261801",8 µg/mL
same,Minimum inhibitory concentration (MIC) 9901,"[1]; clinical E. faecalis from urines, strain 015206179901",16 µg/mL
same,minimum bactericidal concentration (MBC) S. aureus,[2],120 µM
same,minimum bactericidal concentration (MBC) E. faecalis,[3],120 µM
same,minimum bactericidal concentration (MBC) L. monocytogenes,[4],120 µM
same,Minimum inhibitory concentration (MIC) ST 2014 1288,[5]; Daptomycin-resistant S. aureus ST 2014 1288,64 µg/mL
same,Minimum inhibitory concentration (MIC) ST 2015 0188,[5]; Daptomycin-resistant S. aureus ST 2015-0188,64 µg/mL
same,Minimum inhibitory concentration (MIC) HT 2002-0417,[5]; Methicillin-resistant S. aureus HT 2002-0417,32 µg/mL
same,Minimum inhibitory concentration (MIC) HT 2004-0012,[5]; Methicillin-resistant S. aureus HT 2004-0012,32 µg/mL
same,Minimum inhibitory concentration (MIC) HT 2006-1004,[5]; Methicillin-resistant S. aureus HT 2006-1004,32 µg/mL
same,Minimum inhibitory concentration (MIC) LY 199-0053,[5]; Methicillin-resistant S. aureus LY 199-0053,32 µg/mL
same,Minimum inhibitory concentration (MIC) USA 300,[5]; Methicillin-resistant S. aureus Lac-Deleo USA 300,32 µg/mL
same,Minimum inhibitory concentration (MIC) MU 3,[5]; Methicillin-resistant S. aureus MU 3,64 µg/mL
same,Minimum inhibitory concentration (MIC) ATCC 25923,[5]; S. aureus ATCC 25923,32 µg/mL
same,Minimum inhibitory concentration (MIC) ATCC 29213,[5]; S. aureus ATCC 29213,32 µg/mL
same,CMC (critical micelle concentration),[6],0.091 mM
same,CMC (critical micelle concentration),[6]; listed as Sorbitan dodecyl ether,0.09 mM
